Data as given in PubChem BioAssay (NCI).
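Results reflect a 48-hour exposure of cells in 96-well plates to compound at five concentrations. TGI: concentration producing complete growth inhibition.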

Key:
Test in all cases: NCI tumour cell line growth inhibition, 48 h
[1] = test system: 786-0 renal
[2] = test system: A549 NSCLC
[3] = test system: ACHN renal
[4] = test system: CAKI-1 renal
[5] = test system: CCRF-CEM leukemia
[6] = test system: COLO 205 colon
[7] = test system: DLD-1 colon
[8] = test system: DMS 114 small cell lung
[9] = test system: DMS 273 small cell lung
[10] = test system: EKVX NSCLC
[11] = test system: HCT-116 colon
[12] = test system: HCT-15 colon
[13] = test system: HL-60(TB) leukemia
[14] = test system: HOP-18 NSCLC
[15] = test system: HOP-62 NSCLC
[16] = test system: HOP-92 NSCLC
[17] = test system: HT29 colon
[18] = test system: IGROV1 ovarian
[19] = test system: K-562 leukemia
[20] = test system: KM12 colon
[21] = test system: KM20L2 colon
[22] = test system: LOX IMVI melanoma
[23] = test system: LXFL 529 NSCLC
[24] = test system: M14 melanoma
[25] = test system: M19-MEL melanoma
[26] = test system: MOLT-4 leukemia
[27] = test system: NCI-H226 lung
[28] = test system: NCI-H23 lung
[29] = test system: NCI-H460 lung
[30] = test system: NCI-H522 lung
[31] = test system: OVCAR-3 ovarian
[32] = test system: OVCAR-4 ovarian
[33] = test system: OVCAR-5 ovarian
[34] = test system: OVCAR-8 ovarian
[35] = test system: RPMI-8226 leukemia
[36] = test system: RXF 393 renal
[37] = test system: SF-268 CNS
[38] = test system: SF-295 CNS
[39] = test system: SF-539 CNS
[40] = test system: SK-MEL-2 melanoma
[41] = test system: SK-MEL-28 melanoma
[42] = test system: SK-MEL-5 melanoma
[43] = test system: SK-OV-3 ovarian
[44] = test system: SN12C renal
[45] = test system: SNB-19 CNS
[46] = test system: SNB-75 CNS
[47] = test system: SNB-78 CNS
[48] = test system: SR leukemia
[49] = test system: SW-620 colon
[50] = test system: TK-10 renal
[51] = test system: U251 CNS
[52] = test system: UACC-257 melanoma
[53] = test system: UACC-62 melanoma
[54] = test system: UO-31 renal
[55] = test system: XF 498 CNS
[56] = test system: A498 renal
[57] = test system: MALME-3M melanoma
[58] = test system: HCC-2998 colon

What does the source list for CC1=CC2CCC1(C)C/C2=C(/C)OC=O (stereo not given)?
TGI [1]: > 100 µM; TGI [2]: > 100 µM; TGI [3]: > 100 µM; TGI [4]: > 100 µM; TGI [5]: > 100 µM; TGI [6]: > 100 µM; TGI [7]: > 100 µM; TGI [8]: > 100 µM; TGI [9]: > 100 µM; TGI [10]: > 100 µM; TGI [11]: > 100 µM; TGI [12]: > 100 µM; TGI [13]: > 100 µM; TGI [14]: > 100 µM; TGI [15]: > 100 µM; TGI [16]: > 100 µM; TGI [17]: > 100 µM; TGI [18]: > 100 µM; TGI [19]: > 100 µM; TGI [20]: > 100 µM; TGI [21]: > 100 µM; TGI [22]: > 100 µM; TGI [23]: > 100 µM; TGI [24]: > 100 µM; TGI [25]: > 100 µM; TGI [26]: > 100 µM; TGI [27]: > 100 µM; TGI [28]: > 100 µM; TGI [29]: > 100 µM; TGI [30]: > 100 µM; TGI [31]: > 100 µM; TGI [32]: > 100 µM; TGI [33]: > 100 µM; TGI [34]: > 100 µM; TGI [35]: > 100 µM; TGI [36]: > 100 µM; TGI [37]: > 100 µM; TGI [38]: > 100 µM; TGI [39]: > 100 µM; TGI [40]: > 100 µM; TGI [41]: > 100 µM; TGI [42]: > 100 µM; TGI [43]: > 100 µM; TGI [44]: > 100 µM; TGI [45]: > 100 µM; TGI [46]: > 100 µM; TGI [47]: > 100 µM; TGI [48]: > 100 µM; TGI [49]: > 100 µM; TGI [50]: > 100 µM; TGI [51]: > 100 µM; TGI [52]: > 100 µM; TGI [53]: > 100 µM; TGI [54]: > 100 µM; TGI [55]: > 100 µM

Which TGI [1] does the source give for O=C1OC2C(O)COC2(O)C1(O)Cc1c[nH]c2ccccc12 (stereo not given) here?
Its TGI is > 100 µM.

What about the TGI [56] of the same compound?
The TGI was > 100 µM.

And the TGI [2]?
Its TGI is > 100 µM.

And the TGI [4]?
The TGI was > 100 µM.

And the TGI [5]?
Its TGI is > 100 µM.

And the TGI [6]?
The TGI was > 100 µM.

And the TGI [7]?
Its TGI is > 100 µM.

What about the TGI [8] of the same compound?
The TGI was > 100 µM.

What about the TGI [9] of the same compound?
The TGI was > 100 µM.

And the TGI [10]?
The TGI was > 100 µM.

What about the TGI [11] of the same compound?
The TGI was > 100 µM.

What about the TGI [12] of the same compound?
Its TGI is > 100 µM.

What about the TGI [13] of the same compound?
The TGI was > 100 µM.

And the TGI [14]?
The TGI was > 100 µM.

And the TGI [15]?
The TGI was > 100 µM.

And the TGI [16]?
The TGI was > 100 µM.

And the TGI [17]?
The TGI was > 100 µM.

What about the TGI [18] of the same compound?
Its TGI is > 100 µM.

What about the TGI [19] of the same compound?
The TGI was > 100 µM.

What about the TGI [20] of the same compound?
Its TGI is > 100 µM.

And the TGI [21]?
The TGI was > 100 µM.

What about the TGI [22] of the same compound?
The TGI was > 100 µM.

What about the TGI [23] of the same compound?
Its TGI is > 100 µM.

What about the TGI [24] of the same compound?
Its TGI is > 100 µM.

And the TGI [25]?
The TGI was > 100 µM.

What about the TGI [57] of the same compound?
The TGI was > 100 µM.

And the TGI [26]?
The TGI was > 100 µM.

What about the TGI [27] of the same compound?
Its TGI is > 100 µM.

What about the TGI [28] of the same compound?
Its TGI is > 100 µM.

And the TGI [29]?
Its TGI is > 100 µM.

And the TGI [30]?
The TGI was > 100 µM.

And the TGI [31]?
The TGI was > 100 µM.

What about the TGI [32] of the same compound?
Its TGI is > 100 µM.

And the TGI [33]?
Its TGI is > 100 µM.

What about the TGI [34] of the same compound?
The TGI was > 100 µM.

And the TGI [35]?
Its TGI is > 100 µM.

What about the TGI [36] of the same compound?
The TGI was > 100 µM.

What about the TGI [37] of the same compound?
The TGI was > 100 µM.

And the TGI [38]?
The TGI was > 100 µM.

And the TGI [39]?
Its TGI is > 100 µM.

What about the TGI [40] of the same compound?
Its TGI is > 100 µM.

What about the TGI [42] of the same compound?
Its TGI is > 100 µM.

And the TGI [43]?
Its TGI is > 100 µM.

And the TGI [44]?
The TGI was > 100 µM.

What about the TGI [45] of the same compound?
Its TGI is > 100 µM.

What about the TGI [46] of the same compound?
Its TGI is > 100 µM.

And the TGI [47]?
Its TGI is > 100 µM.

And the TGI [48]?
Its TGI is > 100 µM.

What about the TGI [49] of the same compound?
Its TGI is > 100 µM.

And the TGI [50]?
Its TGI is > 100 µM.

What about the TGI [51] of the same compound?
The TGI was > 100 µM.

What about the TGI [52] of the same compound?
The TGI was > 100 µM.

And the TGI [53]?
The TGI was > 100 µM.

What about the TGI [54] of the same compound?
The TGI was > 100 µM.

And the TGI [55]?
The TGI was > 100 µM.

Which results are given for FC(F)(F)C1(Cl)C(Cl)(c2ccccc2)C1(Cl)c1ccccc1 (stereo not given)?
TGI [1]: 29.5 µM; TGI [2]: 28 µM; TGI [3]: 29.5 µM; TGI [4]: 25.6 µM; TGI [5]: 55 µM; TGI [6]: 33.4 µM; TGI [7]: 29.1 µM; TGI [8]: 29.2 µM; TGI [9]: 28.2 µM; TGI [10]: 30.1 µM; TGI [58]: 31.1 µM; TGI [11]: 24.8 µM; TGI [12]: 26.8 µM; TGI [13]: > 100 µM; TGI [14]: 23.1 µM; TGI [15]: 30 µM; TGI [16]: 24.8 µM; TGI [17]: 28.2 µM; TGI [18]: 26 µM; TGI [19]: > 100 µM; TGI [20]: 29 µM; TGI [21]: 26.9 µM; TGI [22]: 26.8 µM; TGI [23]: 29.9 µM; TGI [24]: 30.2 µM; TGI [25]: 29 µM; TGI [26]: 35.4 µM; TGI [27]: 27.4 µM; TGI [28]: 27.5 µM; TGI [29]: 30.5 µM; TGI [31]: 28.1 µM; TGI [32]: 27.3 µM; TGI [33]: 30 µM; TGI [34]: 32.2 µM; TGI [35]: > 100 µM; TGI [36]: 27.7 µM; TGI [37]: 31.7 µM; TGI [38]: 29.4 µM; TGI [39]: 30.4 µM; TGI [40]: 29.1 µM; TGI [41]: 28.2 µM; TGI [42]: 26.9 µM; TGI [43]: 54.7 µM; TGI [44]: 28.6 µM; TGI [45]: 32.5 µM; TGI [46]: 29.9 µM; TGI [47]: 33.2 µM; TGI [48]: 25.8 µM; TGI [49]: 29.1 µM; TGI [50]: 32.8 µM; TGI [51]: 28.3 µM; TGI [52]: 28.1 µM; TGI [53]: 29.7 µM; TGI [54]: 28.1 µM; TGI [55]: 29.3 µM
